Measured values published in patent US12391666B2, “Indoline-1-formamide compound, preparation method therefor, and medical use thereof” (Beijing Innocare Pharma Tech Co., Ltd., priority 2018, dated 2025).

How the values were obtained:
Type in all cases: biochemical
VEGFR2 = VEGFR2 (Homo sapiens (Human), UniProt P35968); assay: VEGFR2 activity inhibition testing (HTRF in vitro kinase assay); details: humanized recombinant VEGFR2 protein, 3.5 μM ATP
Procedure: (§1) The IC50 value of the compound is calculated from 8 concentration points with the XLfit (ID Business Solutions Ltd., UK) software through the following equation: Y=Bottom+(Top−Bottom)/(1+10^((log IC50−X)*slope factor)) • where Y is the inhibition percentage, X is the logarithm of the concentration of the test compound, Bottom is the maximum inhibition percentage, Top is the minimum inhibition percentage, and slope factor is the slope coefficient of the curve. VEGFR2 Activity Inhibition Testing
An in vitro kinase assay was used to evaluate the effect of the compounds of the present invention on VEGFR2 activity.
(§2) The experimental method is summarized as follows:
The in vitro activity of VEGFR2 was determined by detecting the phosphorylation level of the substrate in the kinase reaction using a homogeneous time-resolved fluorescence (HTRF) kinase detection kit (Cisbio, catalog number 62TKOPEC). The reaction buffer contains an enzyme reaction buffer (1×) provided in the kit, 5 mM MgCl2, 1 mM MnCl2, 1 mM DTT, 0.01% BSA and 0.005% Tween 20. The humanized recombinant VEGFR2 protein (Cat. No. 10012-H20B1) was purchased from Sino Biological Inc., and diluted to a 0.3 ng/μL kinase solution with the reaction buffer. The substrate reaction solution includes 0.3 μM biotin-labeled tyrosine kinase substrate and 3.5 μM ATP which were diluted with the reaction buffer. The assay buffer includes 0.1 ng/μL Eu^3+ labeled cage antibody and 18.75 nM streptavidin labeled XL665 (Cisbio, catalog number 610SAXLB) which were diluted with the reaction buffer.
The compound was dissolved and diluted to 10 μM in 100% DMSO, then a 4-fold serial dilution was performed with DMSO to the lowest concentration of 0.61 nM, and each concentration point was diluted 40-fold with the reaction buffer.
4 μL of Compound solution and 2 μL of VEGFR2 kinase solution were added to a 384-well detection plate (Corning, catalog number 4512), mixed uniformly and incubated at room temperature for 15 minutes. Then 4 μL of the substrate reaction solution was added, and the reaction mixture was incubated at room temperature for 30 minutes. Then 10 μL of the assay buffer equal to the volume of the reaction was added, mixed uniformly and allowed to stand at room temperature for 30 minutes, and then the reaction progress was detected with an Envision plate reader (Perkin Elmer) at wavelengths of 620 nm and 665 nm. The ratio of 665/620 is positively correlated with the phosphorylation degree of the substrate, thereby detecting the activity of VEGFR2 kinase. In this experiment, the group without VEGFR2 kinase protein was used as a negative control (100% inhibition), and the group with VEGFR2 kinase protein but no compound was used as a positive control (0% inhibition). The inhibition percentage of the compound on VEGFR2 activity can be calculated using the following equation: Percentage of inhibition=100−100*(signal value of test compound at a specific concentration−signal value of negative control)/(signal value of positive control—signal value of negative control)
as §1, with “VEGFR3” for “VEGFR2”

VEGFR1 = VEGFR1 (Homo sapiens (Human), UniProt P17948); assay: VEGFR1 activity inhibition testing (HTRF in vitro kinase assay); details: humanized recombinant VEGFR1 protein, 0.8 μM ATP
Procedure: VEGFR1 Activity Inhibition Testing
An in vitro kinase assay was used to evaluate the effect of the compounds of the present invention on VEGFR1 activity.
as §2
The in vitro activity of VEGFR1 was determined by detecting the phosphorylation level of the substrate in the kinase reaction using a homogeneous time-resolved fluorescence (HTRF) kinase detection kit (Cisbio, catalog number 62TKOPEC). The reaction buffer contains an enzyme reaction buffer (1×) provided in the kit, 5 mM MgCl2, 1 mM MnCl2, 1 mM DTT. […]
4 μL of Compound solution and 2 μL of VEGFR1 kinase solution were added to a 384-well detection plate (Corning, catalog number 4512), mixed uniformly and incubated at room temperature for 15 minutes. […] Then 10 μL of the assay buffer equal to the volume of the reaction was added, mixed uniformly and allowed to stand at room temperature for 30 minutes, and then the reaction progress was detected with an Envision plate reader (Perkin Elmer) at wavelengths of 620 nm and 665 nm. […] The inhibition percentage of the compound on VEGFR1 activity can be calculated using the following equation: Percentage of inhibition=100−100*(signal value of test compound at a specific concentration−signal value of negative control)/(signal value of positive control−signal value of negative control) […]

VEGFR3 = VEGFR3 (Homo sapiens (Human), UniProt P35916); assay: VEGFR3 activity inhibition testing (HTRF in vitro kinase assay); details: humanized recombinant VEGFR3 protein, 0.4 μM ATP
Procedure: as §1, with “VEGFR3” for “VEGFR2”
An in vitro kinase assay was used to evaluate the effect of the compounds of the present invention on VEGFR3 activity.
as §2
The in vitro activity of VEGFR3 was determined by detecting the phosphorylation level of the substrate in the kinase reaction using a HTRF kinase detection kit (Cisbio, catalog number 62TK0PEC). […]
4 μL of Compound solution and 2 μL of VEGFR3 kinase solution were added to a 384-well detection plate (Corning, catalog number 4512), mixed uniformly and incubated at room temperature for 15 minutes. […] Then 10 μL of the assay buffer equal to the volume of the reaction was added, mixed uniformly and allowed to stand at room temperature for 30 minutes, and then the reaction progress was detected with an Envision plate reader (Perkin Elmer) at wavelengths of 620 nm and 665 nm. […]

Sequence of VEGFR2 (P35968 20-1356): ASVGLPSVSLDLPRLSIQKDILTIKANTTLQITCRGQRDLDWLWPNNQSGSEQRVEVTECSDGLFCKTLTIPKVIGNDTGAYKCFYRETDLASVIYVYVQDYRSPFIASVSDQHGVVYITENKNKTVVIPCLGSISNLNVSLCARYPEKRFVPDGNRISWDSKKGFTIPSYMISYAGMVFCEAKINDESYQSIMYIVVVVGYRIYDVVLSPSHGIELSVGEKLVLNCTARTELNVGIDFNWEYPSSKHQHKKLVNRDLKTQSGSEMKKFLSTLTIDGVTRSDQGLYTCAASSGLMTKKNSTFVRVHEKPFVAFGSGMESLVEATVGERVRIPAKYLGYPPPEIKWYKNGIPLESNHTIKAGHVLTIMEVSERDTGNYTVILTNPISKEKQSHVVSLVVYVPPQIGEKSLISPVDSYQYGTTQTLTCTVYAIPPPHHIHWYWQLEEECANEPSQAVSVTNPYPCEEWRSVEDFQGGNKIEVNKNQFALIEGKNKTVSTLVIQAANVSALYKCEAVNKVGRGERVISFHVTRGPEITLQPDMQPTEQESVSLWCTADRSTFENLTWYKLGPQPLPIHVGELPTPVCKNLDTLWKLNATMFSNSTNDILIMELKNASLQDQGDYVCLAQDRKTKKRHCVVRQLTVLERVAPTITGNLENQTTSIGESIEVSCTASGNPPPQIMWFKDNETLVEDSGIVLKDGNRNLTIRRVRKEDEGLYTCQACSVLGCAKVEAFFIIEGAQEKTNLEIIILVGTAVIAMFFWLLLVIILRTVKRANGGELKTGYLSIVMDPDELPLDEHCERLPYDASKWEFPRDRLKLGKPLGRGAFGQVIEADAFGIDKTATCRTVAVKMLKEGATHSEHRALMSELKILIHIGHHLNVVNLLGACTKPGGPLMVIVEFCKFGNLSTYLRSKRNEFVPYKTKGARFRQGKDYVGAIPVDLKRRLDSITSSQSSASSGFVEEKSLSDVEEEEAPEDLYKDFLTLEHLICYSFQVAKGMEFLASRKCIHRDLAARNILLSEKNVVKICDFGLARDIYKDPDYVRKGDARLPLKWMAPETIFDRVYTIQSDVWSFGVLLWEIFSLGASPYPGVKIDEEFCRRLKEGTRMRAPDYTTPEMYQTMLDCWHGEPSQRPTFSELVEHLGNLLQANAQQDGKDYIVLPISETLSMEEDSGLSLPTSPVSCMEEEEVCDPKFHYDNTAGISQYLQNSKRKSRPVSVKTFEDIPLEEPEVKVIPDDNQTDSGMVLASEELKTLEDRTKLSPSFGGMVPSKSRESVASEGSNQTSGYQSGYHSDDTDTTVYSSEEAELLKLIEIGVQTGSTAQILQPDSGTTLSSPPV
Sequence of VEGFR3 (P35916 25-1363): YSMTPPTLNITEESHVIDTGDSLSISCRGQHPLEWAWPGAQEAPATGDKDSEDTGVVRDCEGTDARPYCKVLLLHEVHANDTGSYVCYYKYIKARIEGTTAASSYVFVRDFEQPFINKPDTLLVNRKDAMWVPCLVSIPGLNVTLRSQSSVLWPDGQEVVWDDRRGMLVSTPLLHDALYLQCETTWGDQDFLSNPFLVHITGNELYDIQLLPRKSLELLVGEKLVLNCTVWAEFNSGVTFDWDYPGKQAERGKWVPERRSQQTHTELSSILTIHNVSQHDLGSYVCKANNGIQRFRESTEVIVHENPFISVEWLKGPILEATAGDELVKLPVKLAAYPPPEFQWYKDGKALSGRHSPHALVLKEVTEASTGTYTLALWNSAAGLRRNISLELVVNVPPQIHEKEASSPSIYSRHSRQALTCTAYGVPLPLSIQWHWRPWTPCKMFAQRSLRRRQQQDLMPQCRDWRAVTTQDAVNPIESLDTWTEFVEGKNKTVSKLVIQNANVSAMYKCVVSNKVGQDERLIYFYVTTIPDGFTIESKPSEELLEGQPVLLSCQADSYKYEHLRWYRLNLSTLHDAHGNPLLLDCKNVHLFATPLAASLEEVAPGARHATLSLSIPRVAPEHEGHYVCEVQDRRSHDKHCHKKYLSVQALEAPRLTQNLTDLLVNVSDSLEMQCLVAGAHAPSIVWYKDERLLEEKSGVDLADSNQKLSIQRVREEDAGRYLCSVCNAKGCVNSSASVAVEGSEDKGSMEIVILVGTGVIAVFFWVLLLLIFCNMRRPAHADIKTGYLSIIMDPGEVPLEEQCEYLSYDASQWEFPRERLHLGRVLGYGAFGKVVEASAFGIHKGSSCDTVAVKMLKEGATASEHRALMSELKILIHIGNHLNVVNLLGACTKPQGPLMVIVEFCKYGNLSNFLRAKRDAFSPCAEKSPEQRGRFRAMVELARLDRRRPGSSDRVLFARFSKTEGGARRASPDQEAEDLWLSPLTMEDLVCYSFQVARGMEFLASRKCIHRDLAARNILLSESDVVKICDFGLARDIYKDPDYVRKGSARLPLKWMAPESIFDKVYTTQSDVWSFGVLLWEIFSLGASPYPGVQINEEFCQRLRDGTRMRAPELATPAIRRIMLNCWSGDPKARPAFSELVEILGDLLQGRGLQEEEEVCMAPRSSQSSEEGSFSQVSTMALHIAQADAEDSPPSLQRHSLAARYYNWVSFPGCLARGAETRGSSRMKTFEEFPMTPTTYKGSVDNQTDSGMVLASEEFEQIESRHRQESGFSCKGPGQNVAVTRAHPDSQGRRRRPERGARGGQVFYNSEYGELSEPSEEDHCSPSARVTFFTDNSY
Sequence of VEGFR1 (P17948 27-1338): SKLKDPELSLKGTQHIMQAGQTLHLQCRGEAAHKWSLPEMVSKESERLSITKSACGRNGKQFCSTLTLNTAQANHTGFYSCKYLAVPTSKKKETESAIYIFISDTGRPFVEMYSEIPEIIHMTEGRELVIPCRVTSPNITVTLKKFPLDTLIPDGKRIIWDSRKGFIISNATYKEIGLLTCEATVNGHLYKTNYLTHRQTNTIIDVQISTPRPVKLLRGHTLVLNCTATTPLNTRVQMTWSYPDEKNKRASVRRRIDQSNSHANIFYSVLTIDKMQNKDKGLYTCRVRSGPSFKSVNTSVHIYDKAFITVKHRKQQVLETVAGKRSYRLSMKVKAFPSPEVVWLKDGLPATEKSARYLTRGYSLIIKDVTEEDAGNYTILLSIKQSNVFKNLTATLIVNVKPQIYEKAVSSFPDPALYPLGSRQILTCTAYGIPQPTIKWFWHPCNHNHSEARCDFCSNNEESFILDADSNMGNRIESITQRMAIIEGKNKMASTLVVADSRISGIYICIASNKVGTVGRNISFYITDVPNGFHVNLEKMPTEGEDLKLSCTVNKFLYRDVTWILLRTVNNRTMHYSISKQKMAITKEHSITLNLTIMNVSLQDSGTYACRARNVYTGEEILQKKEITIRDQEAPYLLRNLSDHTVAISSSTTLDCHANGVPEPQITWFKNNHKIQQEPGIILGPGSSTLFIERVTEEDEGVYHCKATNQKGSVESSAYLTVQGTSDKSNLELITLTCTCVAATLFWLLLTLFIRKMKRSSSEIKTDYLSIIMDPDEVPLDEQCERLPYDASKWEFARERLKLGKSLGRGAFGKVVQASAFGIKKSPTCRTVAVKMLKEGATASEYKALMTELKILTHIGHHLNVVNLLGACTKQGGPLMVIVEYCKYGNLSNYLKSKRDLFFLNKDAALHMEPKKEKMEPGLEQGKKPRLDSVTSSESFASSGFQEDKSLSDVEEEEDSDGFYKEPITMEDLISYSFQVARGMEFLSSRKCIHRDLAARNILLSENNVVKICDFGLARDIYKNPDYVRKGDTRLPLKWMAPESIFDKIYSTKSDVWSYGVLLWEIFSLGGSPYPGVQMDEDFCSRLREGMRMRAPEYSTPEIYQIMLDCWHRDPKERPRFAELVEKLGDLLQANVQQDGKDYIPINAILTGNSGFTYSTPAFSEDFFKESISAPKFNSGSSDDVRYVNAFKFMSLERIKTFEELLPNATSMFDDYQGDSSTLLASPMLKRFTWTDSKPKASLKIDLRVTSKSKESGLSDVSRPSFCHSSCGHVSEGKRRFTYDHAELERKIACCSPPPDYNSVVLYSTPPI

Row | IC50 (VEGFR2) | IC50 (VEGFR1) | IC50 (VEGFR3) | Structure (SMILES)
1 | < 0.01 µM | 0.01 to 0.1 µM | < 0.01 µM | COc1cc2nccc(Oc3ccc4c(c3)CCN4C(=O)NC3CC3)c2cc1C(N)=O [Compound 1, 4-((1-(cyclopropylcarbamoyl)indolin-5-yl)oxy)-7-methoxyquinoline-6-carboxamide]
2 | 0.01 to 0.1 µM | – | – | NC(=O)c1cc2c(Oc3ccc4c(c3)CCN4C(=O)NC3CC3)ccnc2cc1O [Compound 2, 4-((1-(cyclopropylcarbamoyl)indolin-5-yl)oxy)-7-hydroxyquinoline-6-carboxamide]
3 | 0.01 to 0.1 µM | – | – | CNC(=O)N1CCc2cc(Oc3ccnc4cc(OC)c(C(N)=O)cc34)ccc21 [Compound 3, 7-methoxy-4-((1-(methylcarbamoyl)indolin-5-yl)oxy)quinoline-6-carboxamide]
4 | < 0.01 µM | – | – | COc1cc2nccc(Oc3ccc4c(c3)CCN4C(=O)Nc3ccc(F)cc3)c2cc1C(N)=O [Compound 4, 4-((1-((4-fluorophenyl)carbamoyl)indolin-5-yl)oxy)-7-methoxyquinoline-6-carboxamide]
5 | 0.01 to 0.1 µM | – | – | COc1cc2nccc(Oc3ccc4c(c3)CCN4C(=O)NC3CC3)c2cc1OC [Compound 5, N-cyclopropyl-5-((6,7-dimethoxyquinolin-4-yl)oxy)indoline-1-carboxamide]
6 | < 0.01 µM | – | – | COc1cc2nccc(Oc3ccc4c(c3)CCN4C(=O)Nc3cc(C)on3)c2cc1C(N)=O [Compound 6, 7-methoxy-4-((1-((5-methylisoxazol-3-yl)carbamoyl)indolin-5-yl)oxy)quinoline-6-carboxamide]
